Counter-ions that a name gives are not always drawn.
Test system: patients with pupil sizes of at least 7 mm in diameter under dim light conditions
Experiment: Pupil diameter after one drop of 0.2%, 0.4% or 0.8% (w/v) phentolamine mesylate solution (clinical study, NeurOptics pupilometer)
Format: in vivo, human
Method: Reduction in pupil diameter can be analyzed and characterized using procedures such as those described below in which a phentolamine mesylate solution was administered to patients' eyes and change in pupil diameter was measured and characterized. […] The phentolamine mesylate solution contained either 0.2% (w/v) phentolamine mesylate, 0.4% (w/v) phentolamine mesylate, or 0.8% (w/v) phentolamine mesylate.
Sixteen patients were randomized into four groups (of four subjects each). Each group was treated on three successive study visits separated by at least 4 days with one drop of ophthalmic oxymetazoline solution (Visine LR®) in each eye followed by one drop test article in each eye. The test article was a 0.2% (w/v) phentolamine mesylate solution, 0.4% (w/v) phentolamine mesylate solution, 0.8% (w/v) phentolamine mesylate solution, or placebo. Test articles contained the designed amount of phentolamine mesylate in a solution of Tears Naturale II® (from Alcon Labs). Placebo was just Tears Naturale II® (from Alcon Labs). Tears Naturale II® (from Alcon Labs) contains Dextran 70 (0.1% by weight), Hydroxypropyl Methylcellulose 2910 (0.3% by weight), Polyquaternium-1 (0.001% by weight), potassium chloride, water (purified), sodium borate, sodium chloride, and hydrochloric acid and/or sodium hydroxide as necessary to adjust the pH. The patients' pupil diameters were recorded at baseline (i.e., prior to treatment administration), and at 30 minutes, 1 hour, 2 hours, 4 hours, and 8 hours after administration of test articles. Total study duration was approximately nine hours.
Pupil diameters were measured to within 0.1 mm for each eye at baseline and each subsequent time point using a NeurOptics™ pupilometer. Comparisons of changes in mean values within treatment groups were tested for significance using two-tailed paired two sample t-tests with a threshold for significance set at p<0.01 (Bonferroni Correction for multiple paired t-tests). Differences between treatment groups with respect to mean values for pupil size over the course of the study were tested for significance using repeated measure ANOVA (which discards data from subjects lacking any data points). Differences in means between treatment groups at individual time points were tested for significance using one-way ANOVA.

SMILES	differences in mean pupil diameters between different doses (any time point)	mean pupil diameters (one hour post treatment)	mean pupil diameters compared to placebo (ad hoc Fisher's tests) (any concentration, 2, 4 and 8 hours)	mean changes in pupil diameters from baseline as a function of time (over the course of the study)
Cc1ccc(N(CC2=NCCN2)c2cccc(O)c2)cc1 [phentolamine]	no statistically significant differences	lower	–	–
Cc1ccc(N(CC2=NCCN2)c2cccc(O)c2)cc1 [phentolamine mesylate]	–	–	significant differences in mean pupil diameters	significant reductions in pupil size

— patent US12016841B2, “Methods and compositions for treatment of presbyopia, mydriasis, and other ocular disorders” (Ocuphire Pharma, Inc., priority 2018, dated 2024)
